In PMC10330001 (Chemistry (Weinheim an der Bergstrasse, Germany), 2023):
Read-outs that look alike come from different tables or passages of the source.

Assays:
[1] = target: T1, HCoV-HKU1 main protease (Human coronavirus HKU1, UniProt P0C6X2); test: biochemical
T1 sequence (P0C6X2 3335-3637 limits assumed): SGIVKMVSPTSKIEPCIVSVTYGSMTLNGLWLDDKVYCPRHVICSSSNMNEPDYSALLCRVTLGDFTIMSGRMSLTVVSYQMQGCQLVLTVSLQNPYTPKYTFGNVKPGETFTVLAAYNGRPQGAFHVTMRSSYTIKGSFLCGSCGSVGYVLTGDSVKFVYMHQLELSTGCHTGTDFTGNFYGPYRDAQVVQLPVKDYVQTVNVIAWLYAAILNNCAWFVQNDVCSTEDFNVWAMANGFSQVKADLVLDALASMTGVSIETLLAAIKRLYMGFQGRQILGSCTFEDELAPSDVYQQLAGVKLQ

[2] = target: HCoV-NL63 main protease (Human coronavirus NL63, UniProt P0C6X5); test: biochemical
Chain of HCoV-NL63 main protease (P0C6X5 2940-3242 limits assumed): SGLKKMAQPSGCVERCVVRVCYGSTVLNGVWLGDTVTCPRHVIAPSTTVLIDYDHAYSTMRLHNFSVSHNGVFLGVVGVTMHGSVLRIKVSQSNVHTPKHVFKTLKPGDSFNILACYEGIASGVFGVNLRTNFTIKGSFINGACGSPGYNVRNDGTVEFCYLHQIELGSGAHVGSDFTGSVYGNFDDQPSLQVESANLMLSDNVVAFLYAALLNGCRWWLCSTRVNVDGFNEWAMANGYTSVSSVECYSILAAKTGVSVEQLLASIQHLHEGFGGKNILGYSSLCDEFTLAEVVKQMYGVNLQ

[3] = system: SARS-CoV-2 (USA-WA1/2020); settings: read-out: antiviral EC50; comparison value for the Caco2-hACE2 result; ref 9b; cited from earlier work
[4] = target: T2, SARS-CoV-2 Mpro (Severe acute respiratory syndrome coronavirus 2, UniProt P0DTD1); test: biochemical; format: biochemical
[5] = target: SARS-CoV main protease (Severe acute respiratory syndrome coronavirus, UniProt P0C6X7); test: biochemical
[6] = target: MERS-CoV main protease (Middle East respiratory syndrome-related coronavirus, UniProt K9N7C7); test: biochemical
Chain of MERS-CoV main protease (K9N7C7 3248-3553 limits assumed): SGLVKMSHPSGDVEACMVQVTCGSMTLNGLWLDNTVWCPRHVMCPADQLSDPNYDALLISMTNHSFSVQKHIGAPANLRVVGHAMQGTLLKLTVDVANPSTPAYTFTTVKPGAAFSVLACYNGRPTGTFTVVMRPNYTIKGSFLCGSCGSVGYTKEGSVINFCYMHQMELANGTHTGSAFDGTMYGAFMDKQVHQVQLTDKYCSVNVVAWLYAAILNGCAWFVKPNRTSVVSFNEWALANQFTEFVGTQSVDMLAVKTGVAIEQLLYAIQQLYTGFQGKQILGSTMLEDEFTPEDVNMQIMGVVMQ

[7] = target: T3, HCoV-OC43 main protease (Human coronavirus OC43, UniProt P0C6X6); test: biochemical
T3 sequence (P0C6X6 3247-3549 limits assumed): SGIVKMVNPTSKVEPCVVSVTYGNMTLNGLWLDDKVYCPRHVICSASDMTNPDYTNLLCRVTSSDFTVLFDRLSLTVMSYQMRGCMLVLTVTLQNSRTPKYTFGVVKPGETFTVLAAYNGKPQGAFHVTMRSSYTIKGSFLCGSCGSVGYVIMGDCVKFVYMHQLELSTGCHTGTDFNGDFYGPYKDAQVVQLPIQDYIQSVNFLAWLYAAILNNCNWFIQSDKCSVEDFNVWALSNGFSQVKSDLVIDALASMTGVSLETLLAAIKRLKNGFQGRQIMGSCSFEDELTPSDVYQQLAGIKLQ

[8] = target: HCoV-229E main protease (Human coronavirus 229E, UniProt P0C6X1); test: biochemical
Chain of HCoV-229E main protease (P0C6X1 2966-3267): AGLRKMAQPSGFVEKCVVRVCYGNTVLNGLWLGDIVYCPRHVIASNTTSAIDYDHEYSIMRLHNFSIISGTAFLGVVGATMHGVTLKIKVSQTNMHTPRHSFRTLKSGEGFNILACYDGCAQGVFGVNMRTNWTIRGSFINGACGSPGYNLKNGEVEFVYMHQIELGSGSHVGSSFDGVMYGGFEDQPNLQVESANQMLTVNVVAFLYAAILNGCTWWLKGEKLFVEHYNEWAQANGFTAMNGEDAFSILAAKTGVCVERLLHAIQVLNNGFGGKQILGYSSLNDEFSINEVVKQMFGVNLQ

[9] = target: T2, SARS-CoV-2 Mpro; test: cell-based
[10] = system: SARS-CoV-2 (USA-WA1/2020); test: microbe, parasite or virus in culture; format: cell-based
[11] = system: SARS-CoV-2 (USA-WA1/2020); format: cell-based

Structure (SMILES)	IC50 ([4]; read-out: SARS-CoV-2 IC50)	IC50 [4]	IC50 [5]	IC50 [6]	IC50 [7]	IC50 [1]	IC50 [8]	IC50 [2]	EC50 [9]	other results
CC(C)C[C@H](NC(=O)OCc1ccccc1)C(=O)N[C@@H](CC1CCNC1=O)C(O)S(=O)(=O)O (stereo partly drawn) [GC376, reference compound]	–	–	–	–	–	–	–	–	–	IC50 ([1]; read-out: HKU1 IC50): 12 ± 30 nM; IC50 ([2]; read-out: HCoV-NL63 IC50): 120 ± 20 nM; EC50 [3]: 2900 nM
CC(C)C[C@@H](C(=O)N[C@H](C=O)C[C@@H]1CCNC1=O)N1C[C@@H](NC(=O)OCc2ccccc2)CC1=O [M-1-1, Benzyl ((S)-1-((S)-4-methyl-1-oxo-1-(((S)-1-oxo-3-((S)-2-oxopyrrolidin-3-yl)propan-2-yl)amino)pentan-2-yl)-5-oxopyrrolidin-3-yl) carbamate]	510 nM	–	–	–	–	–	–	–	–	–
CC(C)C[C@@H](C(=O)N[C@H](C=O)C[C@@H]1CCNC1=O)N1C[C@@H](NC(=O)OCc2ccccc2)CCC1=O [M-1-3, Benzyl ((S)-1-((S)-4-methyl-1-oxo-1-(((S)-1-oxo-3-((S)-2-oxopyrrolidin-3-yl)propan-2-yl)amino)pentan-2-yl)-6-oxopiperidin-3-yl)carbamate]	–	80 ± 10 nM	160 ± 10 nM	410 ± 50 nM	710 ± 20 nM	33 ± 10 nM	62 ± 10 nM	890 ± 10 nM	> 60000 nM	antiviral activity [10]: not active; antiviral activity [11]: not active
O=C[C@H](C[C@@H]1CCNC1=O)NC(=O)[C@H](CC1CCCCC1)N1C[C@@H](NC(=O)OCc2ccccc2)CCC1=O [M-1-4, Benzyl ((S)-1-((S)-3-cyclohexyl-1-oxo-1-(((S)-1-oxo-3-((S)-2-oxopyrrolidin-3-yl)propan-2-yl)amino)propan-2-yl)-6-oxopiperidin-3-yl)carbamate]	–	950 ± 40 nM	730 ± 100 nM	> 20000 nM	3670 ± 630 nM	1210 ± 200 nM	610 ± 90 nM	9580 ± 1790 nM	18000 nM	EC50 ([10]; Severe acute respiratory syndrome coronavirus 2, read-out: antiviral EC50): 19000 nM
O=C[C@H](C[C@@H]1CCNC1=O)NC(=O)[C@H](Cc1cccc(F)c1)N1C[C@@H](NC(=O)OCc2ccccc2)CCC1=O [M-1-5, Benzyl ((S)-1-((S)-3-(3-fluorophenyl)-1-oxo-1-(((S)-1-oxo-3-((S)-2-oxopyrrolidin-3-yl)propan-2-yl)amino)propan-2-yl)-6-oxopiperidin-3-yl)carbamate]	–	–	–	–	–	–	–	–	49600 nM	–
O=C[C@H](C[C@@H]1CCNC1=O)NC(=O)[C@H](CC1CC1)N1C[C@@H](NC(=O)OCc2ccccc2)CCC1=O [M-1-6, Benzyl ((S)-1-((S)-3-cyclopropyl-1-oxo-1-(((S)-1-oxo-3-((S)-2-oxopyrrolidin-3-yl)propan-2-yl)amino)propan-2-yl)-6-oxopiperidin-3-yl)carbamate]	–	80 ± 10 nM	250 ± 20 nM	850 ± 210 nM	180 ± 10 nM	120 ± 20 nM	180 ± 20 nM	480 ± 60 nM	> 60000 nM	–
CC(C)C[C@@H](C(=O)N[C@H](C=O)C[C@@H]1CCNC1=O)N1C[C@@H](NC(=O)OCc2cc(F)cc(F)c2)CCC1=O [M-1-7, 3,5-difluorobenzyl ((S)-1-((S)-4-methyl-1-oxo-1-(((S)-1-oxo-3-((S)-2-oxopyrrolidin-3-yl)propan-2-yl)amino)pentan-2-yl)-6-oxopiperidin-3-yl)carbamate]	–	190 nM	–	–	–	–	–	–	27300 nM	–
CC(C)C[C@@H](C(=O)N[C@@H](C[C@@H]1CCNC1=O)C(=O)C(=O)NC1CC1)N1C[C@@H](NC(=O)OCc2ccccc2)CC1=O [M-2-3, Benzyl ((S)-1-((S)-1-(((S)-4-(cyclopropylamino)-3,4-dioxo-1-((S)-2-oxopyrrolidin-3-yl)butan-2-yl)amino)-4-methyl-1-oxopentan-2-yl)-5-oxopyrrolidin-3-yl)carbamate]	–	1310 ± 100 nM	2260 ± 390 nM	8020 ± 2070 nM	120 ± 10 nM	390 ± 30 nM	690 ± 80 nM	830 ± 100 nM	–	–
CC(C)C[C@@H](C(=O)N[C@@H](C[C@@H]1CCNC1=O)C(=O)C(=O)NC1CC1)N1C[C@@H](NC(=O)OCc2ccccc2)CCC1=O [M-2-5, Benzyl ((S)-1-((S)-1-(((S)-4-(cyclopropylamino)-3,4-dioxo-1-((S)-2-oxopyrrolidin-3-yl)butan-2-yl)amino)-4-methyl-1-oxopentan-2-yl)-6-oxopiperidin-3-yl) carbamate]	3580 nM	–	–	–	–	–	–	–	–	–
O=C(N[C@H]1CCC(=O)N([C@@H](CC2CCCCC2)C(=O)N[C@@H](C[C@@H]2CCNC2=O)C(=O)C(=O)NC2CC2)C1)OCc1ccccc1 [M-2-6, Benzyl ((S)-1-((S)-3-cyclohexyl-1-(((S)-4-(cyclopropylamino)-3,4-dioxo-1-((S)-2-oxopyrrolidin-3-yl)butan-2-yl)amino)-1-oxopropan-2-yl)-6-oxopiperidin-3-yl) carbamate]	4430 nM	–	–	–	–	–	–	–	–	–
O=C(N[C@H]1CCC(=O)N([C@@H](Cc2cccc(F)c2)C(=O)N[C@@H](C[C@@H]2CCNC2=O)C(=O)C(=O)NC2CC2)C1)OCc1ccccc1 [M-2-7, Benzyl ((S)-1-((S)-1-(((S)-4-(cyclopropylamino)-3,4-dioxo-1-((S)-2-oxopyrrolidin-3-yl)butan-2-yl)amino)-3-(3-fluorophenyl)-1-oxopropan-2-yl)-6-oxopiperidin-3-yl) carbamate]	3990 nM	–	–	–	–	–	–	–	–	–
O=C(N[C@H]1CCC(=O)N([C@@H](CC2CC2)C(=O)N[C@@H](C[C@@H]2CCNC2=O)C(=O)C(=O)NC2CC2)C1)OCc1ccccc1 [M-2-8, Benzyl ((S)-1-((S)-3-cyclopropyl-1-(((S)-4-(cyclopropylamino)-3,4-dioxo-1-((S)-2-oxopyrrolidin-3-yl)butan-2-yl)amino)-1-oxopropan-2-yl)-6-oxopiperidin-3-yl)carbamate]	–	2140 ± 90 nM	3880 ± 670 nM	> 20000 nM	2600 ± 450 nM	2230 ± 460 nM	5670 ± 490 nM	10800 ± 2210 nM	–	–
